We go through 1 compound from patent US9394299B2, “Rilyazine derivatives and compositions for the treatment of cancer” (Warner Babcock Institute for Green Chemistry, LLC, priority 2013, dated 2016).

In series [1] the test system is SK-MEL-5 (Melanoma). Description: NCI single point 10 μM, SK-MEL-5. Format: cell-based, human. The conditions noted are these: 10^−5 M. The procedure: (§1) The screening is a two-stage process, beginning with the evaluation of all compounds against 60 cell lines at a single dose of 10^−5 M.
(§2) The human tumor cell lines of the cancer screening panel are grown in RPMI 1640 medium containing 5% fetal bovine serum and 2 mM L-glutamine. Cells are inoculated into 96 well microtiter plates in 100 μL at plating densities ranging from 5,000 to 40,000 cells/well depending on the doubling time of individual cell lines. After cell inoculation, the microtiter plates are incubated at 37° C., 5% CO2, 95% air and 100% relative humidity for 24 h prior to addition of experimental drugs. […]
(§3) Following drug addition, the plates are incubated for an additional 48 h at 37° C., 5% CO2, 95% air, and 100% relative humidity. […] Bound stain is subsequently solubilized with 10 mM trizma base, and the absorbance is read on an automated plate reader at a wavelength of 515 nm. […]
(§4) For the 1-dose 60 cell testing, the Growth Percent is calculated for each cell line/drug combination from the absorbance measurement for the no-drug control (C), the absorbance at time zero (Tz) and the absorbance measurement after incubation of the cells in the presence of drug (Ti): Growth Percent=[(Ti−Tz)/(C−Tz)]×100 for cell line/drug combinations for which Ti≧Tz. […]

Series [2] deals with SK-MEL-28 (Melanoma). In words: NCI single point 10 μM, SK-MEL-28. It counts as cell-based, human. The conditions noted are these: 10^−5 M. The procedure: as §1, §2, §3, §4
Series [3] concerns MCF7 (Breast Cancer). Description: NCI five point dosing, MCF7. To be noted: Homo sapiens. Format: cell-based. The method, then:
(§5) RL-4 was evaluated against the 60 cell panel at five concentration levels, 10^−8 M, 10^−7 M, 10^−6 M, 10^−5 M and 10^−4 M.
as §2, §3
The percentage growth is calculated at each of the five drug concentrations levels using the seven absorbance measurements, namely absorbance at time zero (Tz), absorbance of control after incubation (C), and absorbance of test sample after incubation in the presence of drug at each of the five concentration levels (Ti). The Growth Percent is calculated as it was for the 1 dose assay: Growth Percent=[(Ti−Tz)/(C−Tz)]×100 for cell line/drug combinations for which Ti≧Tz. […]

The subject of series [4] is MALME-3M (Melanoma). In words: NCI single point 10 μM, MALME-3M. Format: cell-based, human. To be noted: 10^−5 M. The procedure: as §1, §2, §3, §4
The subject of series [5] is TK-10 (Renal Cancer). In words: NCI single point 10 μM, TK-10. It counts as cell-based, human. The conditions noted are these: 10^−5 M. The method, then:
as §1, §2, §3, §4

For series [6], the system named is 60 cell lines (human tumor cell lines of the cancer screening panel). In words: NCI 60 cell line screening, five point dosing (SRB). It counts as cell-based. The method, then: as §5
The human tumor cell lines of the cancer screening panel are grown in RPMI 1640 medium containing 5% fetal bovine serum and 2 mM L-glutamine. Cells are inoculated into 96 well microtiter plates in 100 μL at plating densities ranging from 5,000 to 40,000 cells/well depending on the doubling time of individual cell lines. After cell inoculation, the microtiter plates are incubated at 37° C., 5% CO2, 95% air and 100% relative humidity for 24 h prior to addition of experimental drugs.
After 24 h, two plates of each cell line are fixed in situ with TCA, to represent a measurement of the cell population for each cell line at the time of drug addition Time Zero (Tz). Experimental drugs are solubilized in dimethyl sulfoxide:glycerol 9:1 at 400-fold the desired final maximum test concentration and stored frozen at −70° C. prior to use. At the time of drug addition, an aliquot of frozen concentrate is thawed and diluted to twice the desired final maximum test concentration with complete medium containing 50 μg/ml gentamicin. Additional four, 10-fold or ½ log serial dilutions are made to provide a total of five drug concentrations plus control. Aliquots of 100 μl of these different drug dilutions are added to the appropriate microtiter wells already containing 100 μl of medium, resulting in the required final drug concentrations.
Positive control is prepared by adding the known anti-tumor agent adriamycin, NSC 123127, prepared and stored the same as the compounds for testing.
Following drug addition, the plates are incubated for an additional 48 h at 37° C., 5% CO2, 95% air, and 100% relative humidity. For adherent cells, the assay is terminated by the addition of cold TCA. Cells are fixed in situ by the gentle addition of 50 μl of cold 50% (w/v) TCA (final concentration, 10% TCA) and incubated for 60 minutes at 4° C. The supernatant is discarded, and the plates are washed five times with tap water and air dried. Sulforhodamine B (SRB) solution (100 μl) at 0.4% (w/v) in 1% acetic acid is added to each well, and plates are incubated for 10 minutes at room temperature. After staining, unbound dye is removed by washing five times with 1% acetic acid and the plates are air dried. Bound stain is subsequently solubilized with 10 mM trizma base, and the absorbance is read on an automated plate reader at a wavelength of 515 nm. For suspension cells, the methodology is the same except that the assay is terminated by fixing settled cells at the bottom of the wells by gently adding 50 μl of 80% TCA (final concentration, 16% TCA).
The percentage growth is calculated at each of the five drug concentrations levels using the seven absorbance measurements, namely absorbance at time zero (Tz), absorbance of control after incubation (C), and absorbance of test sample after incubation in the presence of drug at each of the five concentration levels (Ti). The Growth Percent is calculated as it was for the 1 dose assay: Growth Percent=[(Ti−Tz)/(C−Tz)]×100 for cell line/drug combinations for which Ti≧Tz. Growth Percent=[(Ti−Tz)/Tz]×100 for cell line/drug combinations for which Ti<Tz.
For the 5-dose 60 cell testing, three dose-response parameters are determined for each experimental agent. These parameters are Growth Inhibition of 50% (GI50), drug concentration resulting in Total Growth Inhibition (TGI), and concentration resulting in 50% lethality (LC50).
Growth inhibition of 50% (GI50) is determined as the drug concentration at which Growth Percent=[(Ti−Tz)/(C−Tz)]×100=50. GI50 is the drug concentration resulting in a 50% reduction in the net protein increase compared to the increase in protein in control cells (as measured by SRB staining) during the drug incubation.
The drug concentration resulting in total growth inhibition (TGI) is determined as the drug concentration at which Ti=Tz, which corresponds to a Growth Percent of zero. […]

The subject of series [7] is SN12C (Renal Cancer). Description: NCI single point 10 μM, SN12C. It counts as cell-based, human. To be noted: 10^−5 M. The method, then:
as §1, §2, §3, §4

The mark [8] stands for this setting: five point dosing, 60 cell lines.

Structures are written as SMILES. “Also recorded” adds a separate entry of the source.

What is called GI50 is the concentration at which growth is held to half of that of the control. Regarding `S=c1c2ncccc2c(-c2ccccn2)nn1C1CCCCC1` [RL-4, 7-cyclohexyl-5-(pyridin-2-yl)pyrido[2,3-d]pyridazine-8(7H)-thione], the “Growth Percent” value was found to be 7.87% in series [1]; 93.53% in series [2]; 98.97% in series [4]; 120.12% in series [5]; 95.87% in series [7]. For the same compound, the GI50 in series [3] is 0.353 µM; in series [6] (Homo sapiens, five point dosing 10^−8 to 10^−4 M, mean of 60 cell lines, read-out: Mean GI50 for all 60 cell lines), 20 µM. In addition, the CC50 in series [6] (Homo sapiens, five point dosing up to 10^−4 M, read-out: LC50 for all other cell lines (except COLO 205)) is greater than 100 µM. Moreover, in series [6] (concentrations up to 10^−4 M), the “toxicity (in words)” value is “not toxic at the concentrations tested; also recorded: not observed”. Moreover, the “growth inhibition / anti-proliferative efficacy (in words)” value in series [6] (five point dosing 10^−8 to 10^−4 M, 60 cell lines) is listed as “significant growth inhibition across all 60 cell lines; also recorded: anti-proliferative efficacy across a range of 60 cell lines”. Moreover, in series [6] (setting [8]), the “log10GI50 Delta” value is recorded as 1.45. The “log10GI50 Mean” value in series [6] (setting [8]) is −5.0. The “log10GI50 Range” value in series [6] (setting [8]) is recorded as 2.45. Besides, the “number of cell lines in which total growth inhibition (growth percent=0, TGI) was achieved” value in series [6] (within dosage range tested, of 60 cell lines) is recorded as “eight”.
